Patent US20250161283A1, “USE OF INDAZOLE COMPOUND FOR TREATING PSORIASIS” (WUHAN CREATERNA SCIENCE AND TECHNOLOGY CO., LTD., priority 2022, published 2025)

Test system: BALB/c mice
Experiment: IMQ (imiquimod) cream-induced psoriasis mouse model
Type: in vivo
Settings: male BALB/c mice, 15 mg/kg intragastric, twice daily
Description: BALB/c mice, male, 8 weeks old, SPF grade, provided by Shanghai Lingchang Biotechnology Co., Ltd.
In the drawings: • Group 1 Vaseline-Topical Vehicle P.O indicates a normal control group (vehicle group). • Group 2 IMQ+Vehicle P.O indicates a model control group (vehicle group). • Group 3 IMQ+Dex-Topical indicates a positive control group (dexamethasone). • Group 4 IMQ+A 15 mg/kg P.O indicates a compound group (A, 15 mg/kg, intragastric administration). • Group 5 IMQ+B 15 mg/kg P.O indicates a compound group (B, 15 mg/kg, intragastric administration).
First, 50 mice were randomly divided into 5 groups based on body weight: compound group 1—normal control group (vehicle group); compound group 2—model control group (vehicle group); compound group 3—positive control group (dexamethasone); compound group 4 (compound A, 15 mg/kg, intragastrically administered); compound group 5 (compound B, 15 mg/kg, intragastrically administered). On day 0 of the experiment, the dorsal hair of mice in each group was shaved, removing approximately 2 cm*3 cm area of hair. From day 1 to day 7 of the experiment, except for the normal control group, each mouse received an application of 62.5 mg of 5% IMQ cream on the shaved dorsal area and 20.0 mg of 5% IMQ cream on both sides of the right ear. The normal control group received an application of Vaseline. From day 1 to day 8 of the experiment, two hours before IMQ cream stimulation, the above groups were treated with corresponding drugs. The mice were weighed and shaved prior to administration, which was recorded as day 0. The mice were administered drugs from day 1 to day 8, twice daily.
• 1.5.1. Body weight and rate of change: The body weight was recorded, and the rate of change in body weight was calculated. The results are shown in FIG. 1 (presented as Mean±SEM, where *P<0.05, **P<0.01, ***P<0.001, V.S. model control group, Two-way ANOVA, Bonferroni posttests, n=10). • 1.5.2. Right ear thickness measurement: The thickness of the right ear of animals in each group was measured and recorded using a micrometer. The results are shown in FIG. 2 (Note: data presented as Mean±SEM, where *P<0.05, **P<0.01, ***P<0.001, V.S. model control group, Two-way ANOVA, Bonferroni posttests, n=10; data presented as Mean±SEM, where #P<0.5, ##P<0.01, ###P<0.001, V.S. Group 4, Two-way ANOVA, Bonferroni posttests, n=10) • 1.5.3. Dorsal skin scoring: On days 1, 3, 5, and 7, a representative photograph was taken for each group, and clinical scoring of the dorsal skin was performed. The clinical scoring criteria are shown in Table 1, and the results are shown in FIG. 3 (data presented as Mean±SEM, where *P<0.05, **P<0.01, ***P<0.001, V.S. model control group, Two-way ANOVA, Bonferroni posttests, n=10; data presented as Mean±SEM, where #P<0.5, ##P<0.01, ###P<0.001, V.S. Group 4, Two-way ANOVA, Bonferroni posttests, n=10).
• 1.5.4. Spleen weight: On day 8, mice in each group were euthanized by CO2 inhalation, and the spleens were rapidly excised. Right ear and dorsal skin samples were also collected. One-third of the dorsal skin, spleen, and right ear tissues were fixed in 10% neutral formalin fixative for preparation of paraffin sections and HE staining. Another one-third of the dorsal skin was snap-frozen in liquid nitrogen for ELISA analysis. The remaining one-third of the dorsal skin was snap-frozen in liquid nitrogen and stored in a −80° C. freezer for future use. The results are shown in FIG. 4 (Note: data presented as Mean±SEM, where *P<0.05, **P<0.01, ***P<0.001, V.S. model control group, One-way ANOVA, Bonferroni posttests, n=10; data presented as Mean±SEM, where #P<0.5, ##P<0.01, ###P<0.001, V.S. Group 4, One-way ANOVA, Bonferroni posttests, n=10). • 1.5.5. Dorsal skin pathology scoring: Dorsal skin tissue samples were collected from mice and fixed in 10% neutral formalin fixative for 48 hours. The tissues were then degreased in 75% ethanol for 72 hours, with daily medium changes. […]

## COc1cc2nn([C@H]3CC[C@](C)(O)CC3)cc2cc1NC(=O)c1cccc(C)[n+]1[O-] [Compound B, 2-((2-(trans-4-hydroxy-cis-4-methylcyclohexyl)-6-methoxy-2H-indazol-5-yl)carbamoyl)-6-methylpyridine 1-oxide]
HE staining of dorsal skin, compared to model control group
  disease symptoms in the keratin, epidermis, and dermis of the dorsal skin: alleviation
HE staining of dorsal skin, compared to model control group, FIG. 5
  dorsal skin pathological scores: significant reduction
Compared to model control group
  psoriasis symptoms: significant reduction
Day 1 to day 8, compared to model control group, FIG. 1
  weight loss (body weight and rate of change): significantly inhibited
Day 1 to day 8, compared to model control group, FIG. 2
  increase in right ear thickness: significantly inhibited
Scored on days 1, 3, 5, 7, compared to model control group, FIG. 3
  PASI clinical scores (dorsal skin: erythema, crusting, skin thickness, score 0-4): significant reduction
Spleen excised on day 8, compared to model control group, FIG. 4
  increase in spleen weight (spleen enlargement): significantly inhibited
